Test results reported in publication PMC11735596, “Sulfoquinovosyl diacylglycerol, a component of Holy Basil Ocimum tenuiflorum, inhibits the activity of the SARS-CoV-2 main protease and viral replication in vitro” (Journal of Natural Medicines, 2024).
Where “and” joins values, the source holds several entries; their conditions need not be identical. Equal entries are not always repeated.

Assays:
in vitro = details: African green monkey
[1] = test system: SARS-CoV-2 (WK-521 strain); assay: Anti-SARS-CoV-2 assay in infected VeroE6/TMPRSS2 cells (tetrazolium dye method); details: for Protection of infected cells from virus-induced cell death (in words): MOI 0.002, 3 days
[2] = test system: SARS-CoV-2 spike S1 and ACE2; design: method as in PMID 34677731; details: cited from earlier work

SMILES | CC50 (in vitro) | Cytotoxicity (in words) (VeroE6/TMPRSS2 cells) | Protection of infected cells from virus-induced cell death (in words) [1] | EC50 ([1]; read-out: EC50, suppression of SARS-CoV-2 replication, MOI 0.002, 3 days) | Effect on interaction between SARS-CoV-2 spike S1 and ACE2 (in words) [2]
CC/C=C\C/C=C\C/C=C\CCCCCCCC(=O)OC[C@H](CO[C@H]1O[C@H](CS(=O)(=O)O)[C@@H](O)[C@H](O)[C@H]1O)OC(=O)CCCCCCC/C=C\C/C=C\C/C=C\CC [Compound 1, 1,2-di-(9Z,12Z,15Z-octadecatrienoyl)-3-(6′-sulfo-α-D-quinovosyl)-sn-glycerol] | > 100 µM | did not show apparent cytotoxicity | dose-dependent protection | 51.2 µM and 51 µM | 
C=CCc1ccc(O)c(OC)c1 [eugenol] |  |  |  |  | inhibited the interaction between SARS-CoV-2 spike S1 and ACE2
CC/C=C\C/C=C\C/C=C\CCCCCCCC(=O)OC [Compound 5, Methyl linolenate, reference compound] |  |  | inhibited cell death caused by SARS-CoV-2 in a concentration-dependent manner |  | 
CC/C=C\C/C=C\C/C=C\CCCCCCCC(=O)OC[C@H](CO[C@@H]1O[C@H](CO[C@H]2O[C@H](CO)[C@H](O)[C@H](O)[C@H]2O)[C@H](O)[C@H](O)[C@H]1O)OC(=O)CCCCCCC/C=C\C/C=C\C/C=C\CC [Compound 2, 1,2-di-(9Z,12Z,15Z-octadecatrienoyl)-3-O-(α-D-galactosyl-1-6-β-D-galactosyl)-sn-glycerol] |  |  | inhibited cell death caused by SARS-CoV-2 in a concentration-dependent manner |  | 
